In data set [1] the test system is Escherichia coli (ATCC 8739). As to the kind of experiment: Protocol 1 kill curve / MIC, 1 hour at 37° C. The class given is cell-based. As to conditions: 6.25 μg/ml, 10 mM sodium phosphate buffer. The protocol:
This protocol is used to develop dose-response (kill) curves to calculate the minimal inhibitory concentration of an indolicidin (e.g., L-indolicidin (L-IND)) when formulated in a commercially available phosphate buffered saline (PBS) solution. In addition, for comparative purposes, kill curves are established for the following three commonly available commercial lens-care products containing different preservatives:
The stock solutions are diluted in a 2-fold fashion by transferring 1 ml of each stock solution to 1 ml of appropriate diluent in sterile glass tubes (100×13 mm). Twelve additional 2-fold dilutions are made by transferring 1 ml aliquots of each dilution to 1 ml diluent. The diluent for all commercial lens-care products is PBS. […]
Viable counts of the bacteria are performed by 10-fold serial dilutions in sterile PBS and by plating 0.1 ml aliquots on nutrient agar plates. […] The plates are incubated overnight at 37° C. and colonies are counted and recorded. […]
Survival is expressed as number of surviving bacteria (CFU/ml) for each dilution of the test article and control solutions. The lowest dose of the test article that results in complete kill of the test organism, compared to the non-exposed control, is determined to be the MIC value. […]

A short description of data set [2]: Toxicity study, topical ocular administration. The protocol: The objective of this study was to determine if the treatment regimen proposed for the efficacy study of the defensin formulations caused target organ toxicity. This study is not intended to support application for research or marketing permits for products regulated by governmental agencies. The purpose of this study is to provide range-finding data is therefore, not within the scope of Good Laboratory Practice Guidelines.
Rabbits were treated four times on Day 1 at ˜1 hour intervals, and twice daily at ˜12 hour intervals administered on Days 2 through 4.
Dosing volumes were 0.1 mL/mouse (intravaginal), 0.1 mL/mouse (intraperitoneal), and 20 μL/rabbit. The study lasted 5 days, with day 1 the first day of dose administration.
The dose formulations were supplied in pyrogen-free saline.

Data set [3] relates to Staphylococcus aureus 502A. As to the kind of experiment: Dose response of antimicrobial activity in 10 mM sodium phosphate buffer. The class given is cell-based. As to conditions: 10 μg/mL indolicidin, 2 hours, 10 mM sodium phosphate buffer pH 7.4, 37° C., 2×10^6 CFU. On the procedure: (§1) The time course and dose-dependence of the antimicrobial activity of an antimicrobial peptide can be determined by incubating a microorganism with the antimicrobial peptide and determining the viability after various times of incubation or after treatment with various concentrations of the antimicrobial peptide.
(§2) Exemplary assays using indolicidin and indolicidin analogs were performed in 10 mM sodium phosphate buffer, pH 7.4, at 37° C., as described by Selsted et al. (1985) Infect. Immun. 45:150-154, which is incorporated herein by reference.
(§3) The dose response of a gram negative bacterial strain, Escherichia coli ML35, and a gram positive bacterial strain, Staphylococcus aureus 502A, to indolicidin was determined by incubating 2×10^6 colony forming units (CFU) of log phase bacteria with 0-25 μg/mL of indolicidin for two hours. Following incubation, the cultures were serially diluted and plated on nutrient agar. Viability of both gram negative and gram positive bacteria was reduced by at least four orders of magnitude in incubations containing 10 μg/mL of indolicidin. E. coli was more susceptible than S. aureus, as >95% of the input cells were killed after 2 hr incubation with 2.5 μg/mL indolicidin. The indolicidin diluent, 0.01% acetic acid, had no effect on either bacterial strain.

Another data set has as its system S. aureus ATCC 6538. The data set is described as follows: Long-term (8 month) stability in commercial container (Rite-Aid) by S. aureus bioassay. It counts as cell-based, Staphylococcus aureus. As to conditions: 50 μg/ml; for log kill: 4 hours exposure; for stability: 8 months. The protocol:
Long term stability of indolicidin was evaluated in a commercial container (Rite-Aid). The L-indolicidin concentration was 50 μg/ml formulated in a 10 mM sodium phosphate buffer, pH 7.4, with and without 0.85% sodium chloride. The test organism was S. aureus ATCC 6538. Sampling time was 0, 1, 2, 3, 4 and 8 months. The exposure time of the test organism was 0 and 4 hours.

For a further data set, the system named is Escherichia coli ML35. As to the kind of experiment: Dose response and kinetics of antimicrobial activity in 10 mM sodium phosphate buffer. It counts as cell-based. On the procedure:
as §1, §2
as §3, with “The indolicidin diluent, 0.01% acetic acid, had no effect on either bacterial strain.” left out
The kinetics of indolicidin antimicrobial activity was evaluated by incubating 2×10^6 E. coli with […] of indolicidin for 1 to 40 min. […]

Experimental findings from patent US6482799B1, “Self-preserving multipurpose ophthalmic solutions incorporating a polypeptide antimicrobial” (The Regents of the University of California, priority 1999, dated 2002) are described below.

`CC[C@H](C)[C@H](N)C(=O)N[C@@H](CC(C)C)C(=O)N1CCC[C@H]1C(=O)N[C@@H](Cc1c[nH]c2ccccc12)C(=O)N[C@@H](CCCCN)C(=O)N[C@@H](Cc1c[nH]c2ccccc12)C(=O)N1CCC[C@H]1C(=O)N[C@@H](Cc1c[nH]c2ccccc12)C(=O)N[C@@H](Cc1c[nH]c2ccccc12)C(=O)N1CCC[C@H]1C(=O)N[C@@H](Cc1c[nH]c2ccccc12)C(=O)N[C@@H](CCCNC(=N)N)C(=O)N[C@@H](CCCNC(=N)N)C(N)=O` [L-indolicidin, H2N-ILPWKWPWWPWRR-CONH2] had a survival in data set [1] of 15%. The “deaths or clinical signs of toxicity” value in data set [2] (10, 100 or 1000 μg/mL, BPN-A-amide 30, 300 or 3000 μg/mL) was “No deaths or biologically significant clinical signs of toxicity”. In addition, the “toxic changes in rabbit eyes (histology)” value in data set [2] (20 μL/rabbit at 10, 100 or 1000 μg/mL, BPN-A-amide at 30, 300 or 3000 μ/mL) is given as “No toxic changes”. Also, the Viability reduction entry in data set [3] is on record as “at least four”; in the data set on Escherichia coli ML35 (10 μg/mL indolicidin, 2 hours, 10 mM sodium phosphate buffer pH 7.4, 37° C., 2×10^6 CFU), “at least four”. Moreover, the log kill with S. aureus ATCC 6538 (10 mM SP pH 7.4, over 8 months) is reported as approximately 4 log; with S. aureus ATCC 6538 (10 mM SP with 0.85% NaCl, over 8 months), approximately 1 log. Moreover, the stability in the data set on S. aureus ATCC 6538 (10 mM SP with NaCl) and in the data set with S. aureus ATCC 6538 (10 mM SP) was 100% each time. For the same compound, the culture viability result with Escherichia coli ML35 (25 μ/mL indolicidin, after 20 min) was “essentially was sterilized”.
